# Reference: US8026243B2, “[4,5′]Bipyrimidinyl-6,4′-diamine derivatives as protein kinase inhibitors” (Novartis AG, priority 2006, dated 2011)
# Molecular target: T1, Ba/F3-TEL-FGFR3 cells (Homo sapiens, UniProt P22607)
# T1 construct: fused on or other part: The N-terminal oligomerising part of TEL (ETV6) is fused before the intracellular kinase part of FGFR3; P41212 (Transcription factor ETV6)
# Assay: FGFR3 cellular assay: proliferation of transformed Ba/F3-TEL-FGFR3 cells (AlamarBlue)
# Assay type: cell-based
# Details: 48 hours incubation, class symbols
# Experimental: Compounds of the invention are tested for their ability to inhibit transformed Ba/F3-TEL-FGFR3 cells proliferation, which is dependent on FGFR3 cellular kinase activity. Ba/F3-TEL-FGFR3 are cultured up to 800,000 cells/mL in suspension, with RPMI 1640 supplemented with 10% fetal bovine serum as the culture medium. Cells are dispensed into 384-well format plate at 5000 cell/well in […], culture medium. Compounds of the invention are dissolved and diluted in dimethylsulfoxide (DMSO). Twelve points 1:3 serial dilutions are made into DMSO to create concentrations gradient ranging typically from 10 mM to 0.05 μM. Cells are added with 50 nL of diluted compounds and incubated for 48 hours in cell culture incubator. AlamarBlue® (TREK Diagnostic Systems), which can be used to monitor the reducing environment created by proliferating cells, are added to cells at final concentration of 10%. After additional four hours of incubation in a 37° C. cell culture incubator, fluorescence signals from reduced AlamarBlue® (Excitation at 530 nm, Emission at 580 nm) are quantified on Analyst GT (Molecular Devices Corp.). IC50 values are calculated by linear regression analysis of the percentage inhibition of each compound at 12 concentrations.
# T1 sequence (P22607 whole entry, change not shown, the tested form may be a part): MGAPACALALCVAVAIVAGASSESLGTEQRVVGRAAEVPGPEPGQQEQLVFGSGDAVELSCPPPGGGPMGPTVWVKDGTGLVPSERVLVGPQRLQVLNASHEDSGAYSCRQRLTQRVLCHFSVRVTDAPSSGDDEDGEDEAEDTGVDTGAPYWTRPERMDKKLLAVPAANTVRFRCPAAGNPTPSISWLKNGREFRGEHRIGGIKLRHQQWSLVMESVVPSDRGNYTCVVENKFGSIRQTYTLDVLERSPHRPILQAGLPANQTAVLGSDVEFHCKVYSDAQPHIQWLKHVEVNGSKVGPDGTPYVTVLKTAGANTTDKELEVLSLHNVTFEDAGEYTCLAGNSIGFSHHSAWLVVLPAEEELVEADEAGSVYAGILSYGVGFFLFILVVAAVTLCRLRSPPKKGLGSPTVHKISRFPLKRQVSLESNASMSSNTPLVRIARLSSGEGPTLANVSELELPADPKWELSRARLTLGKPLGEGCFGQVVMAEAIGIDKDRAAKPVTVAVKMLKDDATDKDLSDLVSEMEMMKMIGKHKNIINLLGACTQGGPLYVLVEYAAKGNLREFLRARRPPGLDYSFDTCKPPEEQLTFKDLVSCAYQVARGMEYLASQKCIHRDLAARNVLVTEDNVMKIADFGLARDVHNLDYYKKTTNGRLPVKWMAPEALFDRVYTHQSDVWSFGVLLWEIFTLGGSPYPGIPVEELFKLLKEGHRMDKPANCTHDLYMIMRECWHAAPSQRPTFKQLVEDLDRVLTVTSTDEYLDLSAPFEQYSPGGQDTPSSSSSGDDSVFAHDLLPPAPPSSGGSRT
row,Structure (SMILES),GI50
1,"COc1cc(C(=O)NC2CC2)c(Cl)c(Nc2ncncc2-c2cc(Nc3ccc(CN4CCN(C(C)=O)CC4)cn3)ncn2)c1Cl [Compound 67, 3-{6-[5-(4-Acetyl-piperazin-1-ylmethyl)-pyridin-2-ylamino]-[4,5′]bipyrimidinyl-4′-ylamino}-2,4-dichloro-N-cyclopropyl-5-methoxy-benzamide]",< 100 nM
2,"CCN1CCN(Cc2ccc(Nc3cc(-c4cncnc4Nc4cc(OC)cc(OC)c4Cl)ncn3)nc2)CC1 [Compound 38, N4′-(2-Chloro-3,5-dimethoxy-phenyl)-N6-[5-(4-ethyl-piperazin-1-ylmethyl)-pyridin-2-yl]-[4,5′]bipyrimidinyl-6,4′-diamine]",100 to 250 nM
3,"COc1cc(OC)c(Br)c(Nc2ncncc2-c2cc(Nc3ccc(CN4CCOCC4)cn3)ncn2)c1Cl [Compound 49, N4′-(2-Bromo-6-chloro-3,5-dimethoxy-phenyl)-N6-(5-morpholin-4-ylmethyl-pyridin-2-yl)-[4,5′]bipyrimidinyl-6,4′-diamine]",< 100 nM
4,"COc1cc(OC)c(Cl)c(Nc2ncncc2-c2cc(Nc3ccc(CN4CCN(C(C)=O)CC4)cn3)ncn2)c1F [Compound 61, 1-(4-{6-[4′-(2-Chloro-6-fluoro-3,5-dimethoxy-phenylamino)-[4,5′]bipyrimidinyl-6-ylamino]-pyridin-3-ylmethyl}-piperazin-1-yl)-ethanone]",< 100 nM
5,"COc1cc(OC)c(Cl)c(Nc2ncncc2-c2cc(Nc3cc(CN4CCOCC4)ccn3)ncn2)c1Cl [Compound 5, N4′-(2,6-Dichloro-3,5-dimethoxy-phenyl)-N6-(4-morpholin-4-ylmethyl-pyridin-2-yl)-[4,5′]bipyrimidinyl-6,4′-diamine]",< 100 nM
6,"COc1cc(OC)c(Cl)c(Nc2ncncc2-c2cc(Nc3ccc(C(C)O)cn3)ncn2)c1C (centres unmarked) [Compound 81, 1-{6-[4′-(2-Chloro-3,5-dimethoxy-6-methyl-phenylamino)-[4,5′]bipyrimidinyl-6-ylamino]-pyridin-3-yl}-ethanol]",< 100 nM
7,"CCN1CCN(c2ccc(Nc3cc(-c4cncnc4Nc4c(F)c(OC)cc(OC)c4Cl)ncn3)nc2)CC1 [Compound 43, N4′-(2-Chloro-6-fluoro-3,5-dimethoxy-phenyl)-N6-[5-(4-ethyl-piperazin-1-yl)-pyridin-2-yl]-[4,5′]bipyrimidinyl-6,4′-diamine]",< 100 nM
8,"COc1cc(OC)c(Cl)c(Nc2ncncc2-c2cc(Nc3ccc(CN4CCOCC4)cn3)ncn2)c1C [Compound 52, N4′-(2-Chloro-3,5-dimethoxy-6-methyl-phenyl)-N6-(5-morpholin-4-ylmethyl-pyridin-2-yl)-[4,5′]bipyrimidinyl-6,4′-diamine]",< 100 nM
9,"CCNC(=O)c1cc(OC)c(Cl)c(Nc2ncncc2-c2cc(Nc3cc(CN4CCN(C)CC4)ccn3)ncn2)c1Cl [Compound 30, 2,4-Dichloro-N-ethyl-5-methoxy-3-{6-[4-(4-methyl-piperazin-1-ylmethyl)-pyridin-2-ylamino]-[4,5′]bipyrimidinyl-4′-ylamino}-benzamide]",< 100 nM
10,"CCN1CCN(c2ccc(Nc3cc(-c4cncnc4Nc4c(C)c(OC)cc(OC)c4Cl)ncn3)nc2)CC1 [Compound 48, N4′-(2-Chloro-3,5-di-methoxy-6-methyl-phenyl)-N6-[5-(4-ethyl-piperazin-1-yl)-pyridin-2-yl]-[4,5′]bipyrimidinyl-6,4′-diamine]",< 100 nM
11,"COc1cc(OC)c(Cl)c(Nc2ncncc2-c2cc(Nc3ccc(CN4CCN(C)CC4)cn3)ncn2)c1Cl [Compound 3, N4′-(2,6-Dichloro-3,5-dimethoxy-phenyl)-N6-[5-(4-methyl-piperazin-1-ylmethyl)-pyridin-2-yl]-[4,5′]bipyrimidinyl-6,4′-diamine]",< 100 nM
12,"COc1cc(OC)c(Cl)c(Nc2nccnc2-c2cc(Nc3cc(CN4CCOCC4)ccn3)ncn2)c1Cl [Compound 96, {6-[3-(2,6-Dichloro-3,5-dimethoxy-phenylamino)-pyrazin-2-yl]-pyrimidin-4-yl}-(4-morpholin-4-ylmethyl-pyridin-2-yl)-amine]",< 100 nM
13,"COc1cc(OC)c(Cl)c(Nc2ncncc2-c2cc(Nc3ccc(C(C)O)cn3)ncn2)c1Cl (centres unmarked) [Compound 82, 1-{6-[4′-(2,6-Dichloro-3,5-dimethoxy-phenylamino)-[4,5′]bipyrimidinyl-6-ylamino]-pyridin-3-yl}-ethanol]",< 100 nM
14,"COc1cc(OC)c(F)c(Nc2ncncc2-c2cc(Nc3ccc(CN4CCOCC4)cn3)ncn2)c1F [Compound 63, N4′-(2,6-Difluoro-3,5-dimethoxy-phenyl)-N6-(5-morpholin-4-ylmethyl-pyridin-2-yl)-[4,5′]bipyrimidinyl-6,4′-diamine]",< 100 nM
15,"COc1cc(Nc2ncncc2-c2cc(Nc3ccc(CCN4CCOCC4)cn3)ncn2)c(F)c(OC)c1 [Compound 84, N4′-(2-Fluoro-3,5-dimethoxy-phenyl)-N6-[5-(2-morpholin-4-yl-ethyl)-pyridin-2-yl]-[4,5′]bipyrimidinyl-6,4′-diamine]",< 100 nM
16,"COc1cc(OC)c(Cl)c(Nc2ncncc2-c2cc(Nc3ccc(CN4CCN(C(C)=O)CC4)cn3)ncn2)c1Cl [Compound 16, 1-(4-{6-[4′-(2,6-Dichloro-3,5-dimethoxy-phenylamino)-[4,5′]bipyrimidinyl-6-ylamino]-pyridin-3-ylmethyl}-piperazin-1-yl)-ethanone]",< 100 nM
17,"COc1cc(OC)c(Cl)c(Nc2ncncc2-c2cc(N)ncn2)c1Cl [Compound 1, N4′-(2,6-Dichloro-3,5-dimethoxy-phenyl)-[4,5′]bipyrimidinyl-6,4′-diamine]",100 to 250 nM
18,"COc1cc(Nc2ncncc2-c2cc(Nc3ccc(CN4CCOCC4)cn3)ncn2)c(Cl)c(OC)c1 [Compound 37, N4′-(2-Chloro-3,5-dimethoxy-phenyl)-N6-(5-morpholin-4-ylmethyl-pyridin-2-yl)-[4,5′]bipyrimidinyl-6,4′-diamine]",100 to 250 nM
19,"COc1cc(Nc2ncncc2-c2cc(Nc3ccc(C(C)O)cn3)ncn2)c(F)c(OC)c1 (centres unmarked) [Compound 83, 1-{6-[4′-(2-Fluoro-3,5-dimethoxy-phenylamino)-[4,5′]bipyrimidinyl-6-ylamino]-pyridin-3-yl}-ethanol]",< 100 nM
20,"COc1cc(Nc2ncncc2-c2cc(Nc3cc(CN4CCOCC4)ccn3)ncn2)c(F)c(OC)c1 [Compound 71, N4′-(2-Fluoro-3,5-dimethoxy-phenyl)-N6-(4-morpholin-4-ylmethyl-pyridin-2-yl)-[4,5′]bipyrimidinyl-6,4′-diamine]",< 100 nM
21,"CCONC(=O)c1cc(OC)c(Cl)c(Nc2ncncc2-c2cc(Nc3ccc(CN4CCOCC4)cn3)ncn2)c1Cl [Compound 25, 2,4-Dichloro-N-ethoxy-5-methoxy-3-[6-(5-morpholin-4-ylmethyl-pyridin-2-ylamino)-[4,5′]bipyrimidinyl-4′-ylamino]-benzamide]",< 100 nM
22,"CCN1CCN(c2ccc(Nc3cc(-c4cncnc4Nc4c(Cl)c(OC)cc(OC)c4Cl)ncn3)cc2)CC1 [Compound 10, N4′-(2,6-Dichloro-3,5-dimethoxy-phenyl)-N6-[4-(4-ethyl-piperazin-1-yl)-phenyl]-[4,5′]bipyrimidinyl-6,4′-diamine]",< 100 nM
23,"COc1cc(C(N)=O)c(Cl)c(Nc2ncncc2-c2cc(Nc3ccc(CN4CCOCC4)cn3)ncn2)c1Cl [Compound 26, 2,4-Dichloro-5-methoxy-3-[6-(5-morpholin-4-yl-methyl-pyridin-2-ylamino)-[4,5′]bipyrimidinyl-4′-ylamino]-benzamide]",250 to 500 nM
24,"COc1cc(OC)c(Cl)c(Nc2nccnc2-c2cc(Nc3ccc(C(C)O)cn3)ncn2)c1Cl (centres unmarked) [Compound 102, {6-[3-(2,6-Dichloro-3,5-dimethoxy-phenylamino)-pyrazin-2-yl]-pyrimidin-4-yl}-(5-[1-hydroxyethyl]-pyridin-2-yl)-amine]",< 100 nM
25,"COc1ccc(F)c(Nc2nccnc2-c2cc(Nc3ccc(CN4CCOCC4)cn3)ncn2)c1F [Compound 104, {6-[3-(2,6-Difluoro-3-methoxy-phenylamino)-pyrazin-2-yl]-pyrimidin-4-yl}-N-(5-(morpholin-4-ylmethyl)-pyridin-2-yl)-amine]",< 100 nM
26,"COc1cc(OC)c(Cl)c(Nc2ncncc2-c2cc(Nc3ccc(CN4CCN(C(N)=O)CC4)cn3)ncn2)c1Cl [Compound 15, 4-{6-[4′-(2,6-Dichloro-3,5-dimethoxy-phenylamino)-[4,5′]bipyrimidinyl-6-ylamino]-pyridin-3-ylmethyl}-piperazine-1-carboxylic acid amide]",< 100 nM
27,"COc1cc(OC)c(Cl)c(Nc2ncncc2-c2cc(Nc3cc(CN4CCOCC4)ccn3)ncn2)c1C [Compound 54, N4′-(2-Chloro-3,5-dimethoxy-6-methyl-phenyl)-N6-(4-morpholin-4-ylmethyl-pyridin-2-yl)-[4,5′]bipyrimidinyl-6,4′-diamine]",< 100 nM
28,"CCNC(=O)c1cc(OC)c(Cl)c(Nc2ncncc2-c2cc(Nc3ccc(CN(C)C)cn3)ncn2)c1Cl [Compound 31, 2,4-Dichloro-3-[6-(5-dimethylaminomethyl-pyridin-2-ylamino)-[4,5′]bipyrimidinyl-4′-ylamino]-N-ethyl-5-methoxy-benzamide]",< 100 nM

# Same assay, conditions: 48 hours incubation, given as bound
row,Structure (SMILES),GI50
1,"COc1ccc(F)c(Nc2nccnc2-c2cc(N)ncn2)c1F [Compound 103, {6-[3-(2,6-Difluoro-3-methoxy-phenylamino)-pyrazin-2-yl]-pyrimidin-4-yl}-amine]",> 500 nM
